Laboratory results published in ChEMBL document CHEMBL3638970, “Substituted benzamide derivatives” (2015).

How the values were obtained:
[1] = target: Trace amine-associated receptor 1 (Rattus norvegicus, UniProt Q923Y9); experiment: (§1) Radioligand Binding Assay: HEK-293 cells stably expressing rat TAAR1 were maintained at 37 C and 5% CO2 in DMEM high glucose medium, containing fetal calf serum (10%, heat inactivated for 30 min at 56 C), penicillin/streptomycin (1%), and 375 ug/ml geneticin (Gibco). Cells were released from culture flasks using trypsin/ EDTA, harvested, washed twice with ice-cold PBS (without Ca2+ and Mg2+), pelleted at 1,000 rpm for 5 min at 4 C, frozen and stored at -80 C. Frozen pellets were suspended in 20 ml HEPES-NaOH (20 mM, pH 7.4) containing 10 mM EDTA and homogenized with a Polytron (PT 6000, Kinematica) at 14,000 rpm for 20 s. The homogenate was centrifuged at 48,000 x g for 30 min at 4 C. Subsequently, the supernatant was removed and discarded, and the pellet resuspended in 20 ml HEPES-NaOH (20 mM, pH 7.4) containing 0.1 mM EDTA using the Polytron (20 s at 14,000 rpm). This procedure was repeated and the final pellet resuspended in HEPES-NaOH containing 0.1 mM EDTA.; format: cell-based, HEK293
[2] = target: Trace amine-associated receptor 1 (Mus musculus, UniProt Q923Y8); experiment: as §1, with “Assay: Membrane Preparation and Radioligand Binding.” for “Assay:”, “mouse TAA 1” for “rat TAAR1”, “C02” for “CO2”, “rpm).” for “rpm). This procedure was repeated and the final pellet resuspended in HEPES-NaOH containing 0.1 mM EDTA.”; format: cell membranes, HEK293
Trace amine-associated receptor 1 (Mus musculus, UniProt Q923Y8), sequence (Q923Y8 whole entry): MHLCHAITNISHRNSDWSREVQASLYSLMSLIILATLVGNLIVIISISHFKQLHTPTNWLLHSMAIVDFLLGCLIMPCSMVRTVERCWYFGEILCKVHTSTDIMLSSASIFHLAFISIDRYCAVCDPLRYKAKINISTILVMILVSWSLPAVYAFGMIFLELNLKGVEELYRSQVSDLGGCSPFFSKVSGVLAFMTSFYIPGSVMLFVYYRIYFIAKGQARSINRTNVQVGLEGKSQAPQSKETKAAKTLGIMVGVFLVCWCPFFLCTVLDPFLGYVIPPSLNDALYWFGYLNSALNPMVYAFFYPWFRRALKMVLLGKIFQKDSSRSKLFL

Trace amine-associated receptor 1 (Rattus norvegicus, UniProt Q923Y9), sequence (Q923Y9 whole entry): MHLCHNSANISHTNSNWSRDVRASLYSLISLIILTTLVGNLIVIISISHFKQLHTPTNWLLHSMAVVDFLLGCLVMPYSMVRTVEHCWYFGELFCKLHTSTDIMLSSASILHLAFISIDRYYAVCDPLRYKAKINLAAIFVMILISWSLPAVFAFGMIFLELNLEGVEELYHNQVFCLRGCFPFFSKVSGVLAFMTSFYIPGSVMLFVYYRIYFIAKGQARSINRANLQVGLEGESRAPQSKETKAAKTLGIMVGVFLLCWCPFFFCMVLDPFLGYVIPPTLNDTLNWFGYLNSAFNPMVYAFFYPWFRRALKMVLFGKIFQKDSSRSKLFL

SMILES | Ki [1] [nM] | Ki [2] [nM]
N#Cc1cccc(CNC(=O)Nc2ccc([C@H]3CNCCO3)cc2F)c1 | 67.9 | 3.1
COc1ccc(C#N)cc1NC(=O)Nc1ccc([C@@H]2CNCCO2)cc1F | 5.9 | 4.4
CCOc1ccc(C#N)cc1NC(=O)Nc1ccc([C@H]2CNCCO2)cc1F | 1.9 | 1.8
CCOc1ccc(C#N)cc1NC(=O)Nc1ccc([C@@H]2CNCCO2)cc1F | 3.9 | 3.1
N#Cc1ccnc(C(=O)Nc2ccc([C@@H]3CNCCO3)cc2F)c1 | 32.5 | 5
N#Cc1cccc(C(=O)Nc2ccc([C@H]3CNCCO3)cc2F)n1 | 959 | 9.7
O=C(Nc1ccc([C@H]2CNCCO2)c(F)c1)c1cnn(-c2ccc(OC(F)F)cc2)c1 | 0.7 | 0.6
N#Cc1cccc(C(=O)Nc2ccc([C@@H]3CNCCO3)cc2Cl)n1 | 184 | 82.4
N#Cc1cccc(C(=O)Nc2ccc([C@H]3CNCCO3)cc2Cl)n1 | 565 | 27.6
N#Cc1ccc(C(=O)Nc2ccc([C@H]3CNCCO3)cc2Cl)nc1 | 154 | 6.3
N#Cc1ccc(C(=O)Nc2ccc([C@@H]3CNCCO3)cc2Cl)nc1 | 20.2 | 12
N#Cc1ccc(C(=O)Nc2ccc([C@H]3CNCCO3)cc2Cl)cn1 | 524 | 17
N#Cc1ccc(C(=O)Nc2ccc([C@@H]3CNCCO3)cc2Cl)cn1 | 410 | 25.9
N#Cc1cc(Cl)cc(C(=O)Nc2ccc([C@H]3CNCCO3)cc2F)n1 | 93.8 | 6.3
O=C(Nc1ccc([C@H]2CNCCO2)c(F)c1)c1cnn(-c2ccnc(C(F)(F)F)n2)c1 | 3.6 | 8
O=C(Nc1ccc([C@H]2CNCCO2)c(F)c1)c1cnn(-c2cnc(C(F)(F)F)cn2)c1 | 4 | 4.8
